The conditions of data set [1]: in vivo; cited from earlier work.
For data set [2] the following is noted: patients; cited from earlier work.
The target in data set [3] is α1 unit of Na,K-ATPase. To be noted: read-out: Kd to block the α1 unit of Na,K-ATPase; cited from earlier work.
In data set [4] the test system is afferent transmission in C-fiber and Aδ-fiber afferents (DRG). The experiment in a line: ex vivo single-fiber recordings of afferent transmission block by DRG stimulation with local Na,K-ATPase inhibition (3-compartment tissue chamber). An excerpt: FIG. 9A is a plot of ex vivo single-fiber recordings from afferent axons in a 3-compartment tissue chamber that isolates the DRG from the spinal nerve and dorsal root allowing focused pharmacological application.
Action potentials were evoked by stimulating the peripheral end of the spinal nerve, which is transmitted down the peripheral and central axons to be recorded by extracellular single-fiber recordings from split dorsal root filaments.

Entries after “also recorded” stand apart in the source; their conditions may differ.

Regarding `C[C@H]1O[C@@H](O[C@H]2[C@@H](O)C[C@H](O[C@H]3[C@@H](O)C[C@H](O[C@H]4CC[C@@]5(C)[C@H](CC[C@@H]6[C@@H]5CC[C@]5(C)[C@@H](C7=CC(=O)OC7)CC[C@]65O)C4)O[C@@H]3C)O[C@@H]2C)C[C@H](O)[C@@H]1O` [digitoxin], the “route of elimination from the body” value in data set [1] is “eliminated via the liver”.
For the compound `C[C@H]1O[C@@H](O[C@H]2[C@@H](O)C[C@H](O[C@H]3[C@@H](O)C[C@H](O[C@H]4CC[C@@]5(C)[C@H](CC[C@@H]6[C@@H]5C[C@@H](O)[C@]5(C)[C@@H](C7=CC(=O)OC7)CC[C@]65O)C4)O[C@@H]3C)O[C@@H]2C)C[C@H](O)[C@@H]1O` [digoxin], in data set [2], the “serum level considered safe with no apparent side effects” value was < 1.0 ng/mL.
One may read the Kd as the constant that tells how readily two partners part at equilibrium. Consider `C[C@@H]1O[C@@H](O[C@H]2C[C@@H](O)[C@]3(CO)[C@H]4[C@H](O)C[C@]5(C)[C@@H](C6=CC(=O)OC6)CC[C@]5(O)[C@@H]4CC[C@]3(O)C2)[C@H](O)[C@H](O)[C@H]1O` [ouabain], for which the Kd in data set [3] was 32 to 170 µM. Besides, in data set [4] (10 Hz DRG stimulation combined with ouabain 10 μg/mL (17.1 μM), OBF for C-fibers ~50 Hz without drug), the “transmission block of C-fiber afferent by 10 Hz DRG stimulation” value is “effectively blocks afferent transmission; also recorded: transmission block is achieved; also recorded: selectively block C-fiber afferents”. Moreover, in data set [4] (10 Hz DRG stimulation combined with ouabain 17.1 μM), the “transmission block of Aδ-fiber afferent by 10 Hz DRG stimulation” value is “unblocked; also recorded: unaffected”. Moreover, the “transmission block by DRG stimulation as measured by the time to resume transmission following terminating the DRG stimulation” value in data set [4] (ouabain 10 μg/mL or 17.1 μM applied locally to the DRG in the middle compartment) is recorded as “significantly prolonged”. The “separation of optimal blocking frequency (OBF) between C-fibers and thinly myelinated Aδ-fibers” value in data set [4] (ouabain applied to the DRG) is listed as “greater separation”.

The record behind these values is patent publication US20250128062A1 (priority 2023, published 2025).
